Measurements taken from US20250235451A1, “Methods of Delaying Pain Progression And Treating Prostate Cancer” (ASTRAZENECA AB, priority 2020, published 2025).

Legend:
[1] = Phase III trial NCT02987543, safety (adverse events, CTCAE v4.0) in the overall population; type: in vivo
Protocol: (§1) Additional secondary endpoints evaluated included confirmed radiographic objective response rate (ORR), time to pain progression (TTPP), overall survival (OS), prostate-specific antigen (PSA) response (PSA50 response) and circulating tumor cell (CTC) conversion rate. ORR was assessed among evaluable patients who had measurable disease at baseline as assessed by BICR using RECIST v1.1 (responses were also assessed by BICR using RECIST v1.1, were confirmed and required absence of progression on bone scan assessed by PCWG3). OS is defined as time from randomization to time point at which death due to any cause occurs. A pre-specified sensitivity analysis for the crossover effect on OS was performed. Safety was assessed in the overall population through reporting of Common Terminology Criteria for Adverse Events (CTCAE) v4.0 and collection of clinical chemistry and hematology parameters.
Blood samples for PSA assessments were collected at baseline, every 4 weeks until week 24, then every 8 weeks until study treatment discontinuation, and for CTC analyses were collected at baseline and then every 8 weeks until study treatment discontinuation. Overall survival was assessed every 12 weeks after progression. Adverse events (AEs) were graded according to the National Cancer Institute Common Terminology Criteria for Adverse Events version 4.0. […]
Statistical analysis. Efficacy data were analyzed on an intent-to-treat basis and safety data were reported for all patients who received ≥1 dose of trial treatment. […] For time-to-event endpoints, rPFS, time to pain progression, and OS, P-values were calculated using log-rank tests, stratified by stratification factors. […] The Kaplan-Meier method was used to calculate medians for each trial arm. Logistic regression models adjusted for stratification factors were used to analyze objective responses. A multiple-testing procedure was used to control for the study-wide type 1 error rate. […] For OS, the two-sided 5% level of alpha was split at the interim (0.01) and final (0.047) analyses using an O′Brien-Fleming spending function.

[2] = test system: metastatic castration-resistant prostate cancer (mCRPC) with a qualifying alteration in any of 15 prespecified HRR genes; assay: Phase III trial NCT02987543, efficacy in the overall population (Cohorts A + B); type: in vivo, human
Excerpt: (§2) Patient population. In clinical trial NCT02987543, eligible patients were male, aged ≥18 years with histological diagnosis of prostate cancer, confirmed mCRPC, whose disease had progressed after one or more treatments with new hormonal agent (NHA) (e.g., enzalutamide or abiraterone, administered for metastatic or non-metastatic castration-resistant prostate cancer, as well as metastatic hormone-sensitive prostate cancer). Prior taxane chemotherapy was allowed. Men without prior surgical castration were required to continue luteinizing-hormone-releasing hormone analog therapy. Patients had adequate organ and bone marrow function. Full eligibility criteria are provided in the trial protocol. All patients provided written informed consent. An investigational clinical trial assay, based on the FoundationOne® CDx next-generation sequencing test was used to prospectively identify patients with qualifying deleterious or suspected deleterious alterations in one or more of the 15 prespecified genes selected for their direct or indirect role in HRR: BRCA1, BRCA2, ATM, BRIP1, BARD1, CDK12, CHEK1, CHEK2, FANCL, PALB2, PPP2R2A, RAD51B, RAD51C, RAD51D, and RAD54L. Tumor testing was conducted centrally using archival or recent biopsy tissue from primary or metastatic disease. Presence of deleterious or suspected deleterious alteration by the central tumor test was required for eligibility, irrespective of the zygosity of the alteration.
(§3) Study design. This was a prospective, randomized, open-label, Phase III study. Eligible patients were included in one of two cohorts depending on their qualifying gene alteration. Cohort A included patients with BRCA1, BRCA2 and/or ATM alterations, regardless of co-occurring qualifying alterations in any of the other genes. Cohort B included patients with alterations in any of the other 12 genes. The overall population comprised patients from Cohort A and Cohort B (i.e., patients with a qualifying alteration in any of the 15 prespecified genes).
(§4) Randomization was stratified by previous taxane use (yes/no) and measurable disease (yes/no). Treatment was continued until objective radiographic disease progression assessed by a third-party vendor blinded independent central review (BICR), or unacceptable toxicity. Patients randomized to the control arm were eligible to cross over to olaparib treatment upon BICR-confirmed radiographic progression.
(§5) The primary endpoint was rPFS assessed by BICR in patients with BRCA1, BRCA2, and/or ATM alterations (Cohort A). rPFS was defined as the time from randomization until soft-tissue disease progression (by Response Evaluation Criteria in Solid Tumors (RECIST) v1.1), bone lesion progression (by Prostate Cancer Working Group 3 (PCWG3) criteria) or death. A prespecified sensitivity analysis of rPFS based on investigator assessment was performed. rPFS by BICR in the overall population was also a secondary endpoint.
as §1
(§6) Time to pain progression (TTPP) was based on Brief Pain Inventory-Short Form item 3 ('worst pain in 24 hours) and initiation of opiate analgesic use (Analgesic Quantification Algorithm score). […]

[3] = test system: metastatic castration-resistant prostate cancer (mCRPC) with BRCA1, BRCA2, and/or ATM alterations; assay: Phase III trial NCT02987543, efficacy in Cohort A (alterations in BRCA1, BRCA2 and/or ATM); type: in vivo, human
Excerpt: as §2, §3, §4, §5, §1, §6

[4] = overall population, evaluable patients
[5] = overall population, olaparib vs control

O=C(c1cc(Cc2n[nH]c(=O)c3ccccc23)ccc1F)N1CCN(C(=O)C2CC2)CC1 [Olaparib, 4-[(3-{[4-(cyclopropane-carbonyl)piperazine-1-yl]carbonyl}-4-fluorophenyl)methyl]-2H-phthalazin-1-one]
Anemia, All grades, (%) [1]: (46.5) % | Anemia, Grade ≥3, (%) [1]: (21.5) % | Any adverse event, All grades, (%) [1]: (95.3) % | Any adverse event, Grade ≥3, (%) [1]: (50.8) % | Arthralgia, All grades, (%) [1]: (9.4) % | Arthralgia, Grade ≥3, (%) [1]: (0.4) % | Back pain, All grades, (%) [1]: (13.7) % | Back pain, Grade ≥3, (%) [1]: (0.8) % | Cough, All grades, (%) [1]: (10.9) % | Decreased appetite, All grades, (%) [1]: (30.1) % | Decreased appetite, Grade ≥3, (%) [1]: (1.2) % | Diarrhea, All grades, (%) [1]: (21.1) % | Diarrhea, Grade ≥3, (%) [1]: (0.8) % | Discontinuation of intervention due to adverse event, (%) [1]: (18.0) % | Dose reduction due to adverse event, (%) [1]: (22.3) % | Dyspnea, All grades, (%) [1]: (10.2) % | Dyspnea, Grade ≥3, (%) [1]: (2.3) % | Fatal adverse event, (%) [1]: (3.9) % | Fatigue & asthenia, All grades, (%) [1]: (41.0) % | Fatigue & asthenia, Grade ≥3, (%) [1]: (2.7) % | Interruption of intervention due to adverse event, (%) [1]: (44.9) % | Nausea, All grades, (%) [1]: (41.4) % | Nausea, Grade ≥3, (%) [1]: (1.2) % | Peripheral edema, All grades, (%) [1]: (12.5) % | Urinary tract infection, All grades, (%) [1]: (7.0) % | Urinary tract infection, Grade ≥3, (%) [1]: (1.6) % | Vomiting, All grades, (%) [1]: (18.4) % | Vomiting, Grade ≥3, (%) [1]: (2.3) % | patients reporting new primary malignancies [1]: 1 n | pulmonary embolism events, % [1]: 4.3% | pulmonary embolism events, number ([1]; none were fatal): 11 | Median TTPP (months), sensitivity analysis including any death as an event ([2]; Cohorts A + B (overall population)): 11.89 months | TTPP Pain severity, Events (%) ([2]; overall population): 9.4% | TTPP Pain severity, Events n ([2]; overall population): 24 n | TTPP Worst pain, Events (%) ([2]; overall population): 12.5% | TTPP Worst pain, Events n ([2]; overall population): 32 n | Time to Opiate use, Events (%) ([2]; overall population): 37.1% | Time to Opiate use, Events n ([2]; overall population): 65 n | Time to Opiate use, Median (m) ([2]; overall population): 18.0 m | median rPFS by BICR ([2]; overall population): 5.82 months | TTPP Pain severity, 6-month rate (%) ([2]; overall population, 6 months): 88.7% | TTPP Worst pain, 6-month rate (%) (free of pain progression) ([2]; overall population, 6 months): 85.2% | Time to Opiate use, 6-month rate (%) ([2]; overall population, 6 months): 25% | TTPP Pain severity, 12-month rate (%) ([2]; overall population, 12 months): 81.0% | TTPP Worst pain, 12-month rate (%) ([2]; overall population, 12 months): 76.3% | Time to Opiate use, 12-month rate (%) ([2]; overall population, 12 months): 41% | Median OS at interim analysis ([2]; overall population, data maturity 41%): 17.51 months | CTC conversion [2, 4]: 26.8% | PSA50 response [2, 4]: 30.0% | confirmed objective response rate [2, 4]: 21.7% | TTPP Pain severity, HR [2, 5]: 0.71 | TTPP Worst pain, HR [2, 5]: 0.64 | Time to Opiate use, HR [2, 5]: 0.67 | median progression free survival greater than for subjects receiving the standard of care treatment ([2]; overall subject population): at least 2 months | Median TTPP (months), sensitivity analysis including any death as an event [3]: 17.22 months | median OS (interim analysis) ([3]; data maturity 38%): 18.50 months | CTC conversion ([3]; evaluable patients): 29.9% | PSA50 response ([3]; evaluable patients): 43.1% | confirmed objective response rate ([3]; evaluable patients): 33.3% | reduction in risk for disease progression or death ([3]; olaparib vs control): 66% | median rPFS (radiographic progression-free survival) by BICR ([3]; primary endpoint): 7.39 months
